Reference: patent US8933113B2 (Merck Sharp & Dohme Corp., priority 2011, dated 2015)

Target: T1, full-length human Mineralocorticoid Receptor (MR) (Homo sapiens, UniProt P08235)
T1 construct: host or cells: PathHunter CHO-K1 cells
T1 sequence (P08235 1-984): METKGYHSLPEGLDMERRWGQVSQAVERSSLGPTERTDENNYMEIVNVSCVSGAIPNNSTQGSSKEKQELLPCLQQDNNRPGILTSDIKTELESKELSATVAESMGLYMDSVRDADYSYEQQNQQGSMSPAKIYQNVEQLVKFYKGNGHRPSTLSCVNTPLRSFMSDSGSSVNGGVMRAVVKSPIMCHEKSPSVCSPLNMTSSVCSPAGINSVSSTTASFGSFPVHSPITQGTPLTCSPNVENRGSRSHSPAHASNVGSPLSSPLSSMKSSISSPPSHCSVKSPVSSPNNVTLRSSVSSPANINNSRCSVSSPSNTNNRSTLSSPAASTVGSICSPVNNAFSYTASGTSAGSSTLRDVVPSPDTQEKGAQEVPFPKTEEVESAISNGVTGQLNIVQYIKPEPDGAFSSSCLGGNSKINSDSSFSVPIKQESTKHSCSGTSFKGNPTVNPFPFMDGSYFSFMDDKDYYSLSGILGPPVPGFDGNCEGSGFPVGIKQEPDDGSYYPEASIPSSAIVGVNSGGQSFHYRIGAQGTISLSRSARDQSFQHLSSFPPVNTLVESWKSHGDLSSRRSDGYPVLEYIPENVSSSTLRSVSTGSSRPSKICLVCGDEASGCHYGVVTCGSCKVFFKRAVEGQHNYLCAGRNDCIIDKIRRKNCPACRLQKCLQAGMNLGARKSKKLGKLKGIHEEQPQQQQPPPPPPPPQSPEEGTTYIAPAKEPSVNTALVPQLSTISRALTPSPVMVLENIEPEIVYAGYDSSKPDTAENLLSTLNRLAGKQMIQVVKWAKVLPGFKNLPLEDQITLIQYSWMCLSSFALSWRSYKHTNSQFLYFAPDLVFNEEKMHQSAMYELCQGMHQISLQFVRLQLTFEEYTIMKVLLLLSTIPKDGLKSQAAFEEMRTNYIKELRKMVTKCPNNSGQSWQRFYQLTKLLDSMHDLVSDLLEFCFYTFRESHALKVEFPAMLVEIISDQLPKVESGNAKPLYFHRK
Assay: human MR NH Pro assay (PathHunter Protein:Protein interaction assay), MR antagonist activity
Format: cell-based
Details: PathHunter CHO-K1 cells overexpressing human MR; aldosterone about 0.3 nM; 6 hours at 37° C.; luminescence; read-out: Primary Assay IP rating (IP = inflection point for a given dose-response titration curve)
Source text: The activity of the compounds of the present invention regarding mineralocorticoid receptor antagonism can be evaluated using the following assay.
Assessment of MR Potency in HMR NH Pro Assay
The human MR NH Pro assay is a commercially available PathHunter™ Protein:Protein interaction assay (DiscoveRx; http://www.discoverx.com/nhrs/prod-nhrs.php) that measures the ability of compounds to antagonize full-length human Mineralocorticoid Receptor (MR) binding to a coactivator peptide.
6. Test compounds are titrated starting at 4.4 mM, 10-point titration in 1:3 dilution.
3. Add 5 μL 6× agonist (final aldosterone concentration should be about 0.3 nM to about 1.0 nM) to all wells (using the PlateMate Plus.)
• (ThermoFisher) (except those wells in columns 23 and 24) 4. Add 5 uL of assay media to all wells in column 23 and 24. 5. Incubate 6 hrs at 37° C., 5% CO2. 6. Add 15 uL 3× DiscoveRx detection reagent to each well. 7. Incubate 1 hour at room temperature (keep plates stored in the dark). 8. Read plates on Envision (PerkinElmer) luminesence plate reader and analyze using ADA.

Row | Compound | IC50 [µM]
1 | COC(=O)C(c1ccc(F)cc1Cl)n1ccc2cccc(OCc3ccccc3)c21 (stereo not shown) [Compound 16, methyl [7-(benzyloxy)-1H-indol-1-yl](2-chloro-4-fluorophenyl)acetate] | 0.5 to 5
2 | CC(C)(C)OC(=O)C(c1ccc(Cl)cc1)n1ccc2c(NS(C)(=O)=O)cccc21 (stereo not shown) [Compound 18, tert-butyl (4-chlorophenyl){4-[(methylsulfonyl)amino]-1H-indol-1-yl}acetate] | 0.5 to 5
3 | COC(=O)C(c1ccc(Cl)cc1)n1ncc2c(NS(C)(=O)=O)cccc21 (stereo not shown) [Compound 19, methyl (4-chlorophenyl){4-[(methylsulfonyl)amino]-1H-indazol-1-yl}acetate] | 0.5 to 5
4 | COC(=O)C(c1ccc(Br)cc1)n1ccc2c(NS(C)(=O)=O)cccc21 (stereo not shown) [Compound 24, methyl (4-bromophenyl){4-[(methylsulfonyl)amino]-1H-indol-1-yl}acetate] | 0.5 to 5
5 | CC(C)(C)OC(=O)C(CC#N)(c1ccc(Cl)cc1)n1ccc2c(NS(C)(=O)=O)cccc21 (stereo not shown) [Compound 27, tert-Butyl 2-(4-chlorophenyl)-3-cyano-2-{4-[(methylsulfonyl)amino]-1H-indol-1-yl}propanoate] | 0.1 to 0.5
6 | COC(=O)C(C)(c1ccc(Cl)cc1Cl)n1ccc2c(NS(C)(=O)=O)cccc21 (stereo not shown) [Compound 29, Methyl 2-(2,4-dichlorophenyl)-2-{4-[(methylsulfonyl)amino]-1H-indol-1-yl}propanoate] | 0.5 to 5
7 | CCC(C(=O)OC)(c1ccc(Cl)cc1Cl)n1ccc2c(NS(C)(=O)=O)cccc21 (stereo not shown) [Compound 30, Methyl 2-(2,4-dichlorophenyl)-2-{4-[(methylsulfonyl)amino]-1H-indol-1-yl}butanoate] | 0.1 to 0.5
8 | CCC(C(=O)OC)(c1ccc(F)cc1Cl)n1ccc2c(NS(C)(=O)=O)cccc21 (stereo not shown) [Compound 31, Methyl 2-(2-chloro-4-fluorophenyl)-2-{4-[(methylsulfonyl)amino]-1H-indol-1-yl}butanoate] | 0.1 to 0.5
9 | CCC(C(=O)OC)(c1ccc(Cl)cc1)n1ncc2c(NS(C)(=O)=O)cccc21 (stereo not shown) [Compound 32, Methyl 2-(4-chlorophenyl)-2-{4-[(methylsulfonyl)amino]-1H-indazol-1-yl}butanoate] | 0.1 to 0.5
10 | CCC(C(=O)NCCc1ccccc1)(c1ccc(Cl)cc1)n1ccc2c(NS(C)(=O)=O)cccc21 (stereo not shown) [Compound 50, 2-(4-chlorophenyl)-2-{4-[(methylsulfonyl)amino]-1H-indol-1-yl}-N-(2-phenylethyl)butanamide] | 0.5 to 5
11 | CS(=O)(=O)Nc1cccc2c1ccn2C(CC#N)(C(=O)NCc1ccccc1)c1ccc(Cl)cc1 (stereo not shown) [Compound 54, N-benzyl-2-(4-chlorophenyl)-3-cyano-2-{4-[(methylsulfonyl)amino]-1H-indol-1-yl}propanamide] | 0.1 to 0.5
12 | CS(=O)(=O)Nc1cccc2c1ccn2C(CC#N)(C(=O)NCC(F)(F)F)c1ccc(Cl)cc1 (stereo not shown) [Compound 55, 2-(4-chlorophenyl)-3-cyano-2-{4-[(methylsulfonyl)amino]-1H-indol-1-yl}-N-(2,2,2-trifluoroethyl)propanamide] | 0.1 to 0.5
13 | CC[C@@](c1ccc(Cl)cc1)(c1noc(C)n1)n1ccc2c(NS(C)(=O)=O)cccc21 [Compound 57] | < 0.1

The next lines start with the values.

Row | IC50 [µM] | Compound
14 | 0.1 to 0.5 | CCC(C(=O)OC(C)(C)C)(c1ccc(Cl)cc1)n1ccc2c(NS(C)(=O)=O)cccc21 (stereo not shown) [Compound 26, tert-Butyl 2-(4-chlorophenyl)-2-{4-[(methylsulfonyl)amino]-1H-indol-1-yl}butanoate]
15 | 0.1 to 0.5 | C=CCC(C(=O)OC)(c1ccc(Cl)cc1)n1ccc2c(NS(C)(=O)=O)cccc21 (stereo not shown) [Compound 33, Methyl 2-(4-chlorophenyl)-2-{4-[(methylsulfonyl)amino]-1H-indol-1-yl}pent-4-enoate]
16 | < 0.1 | COC(=O)CC(C(=O)OC)(c1ccc(Cl)cc1)n1ccc2c(NS(C)(=O)=O)cccc21 (stereo not shown) [Compound 35, Dimethyl 2-(4-chlorophenyl)-2-{4-[(methylsulfonyl)amino]-1H-indol-1-yl}butanedioate]
17 | 0.1 to 0.5 | CC[C@](C(N)=O)(c1ccc(Cl)cc1)n1ccc2c(NS(C)(=O)=O)cccc21 [Compound 40, (R)-2-(4-chlorophenyl)-2-{4-[(methylsulfonyl)amino]-1H-indol-1-yl}butanamide]
18 | 0.1 to 0.5 | CC[C@](C(=O)NC1CC1)(c1ccc(Cl)cc1)n1ccc2c(NS(C)(=O)=O)cccc21 [Compound 41, (R)-2-(4-chlorophenyl)-N-cyclopropyl-2-{4-[(methylsulfonyl)amino]-1H-indol-1-yl}butanamide]
19 | 0.5 to 5 | CCC(C(=O)NCCOC)(c1ccc(Cl)cc1)n1ccc2c(NS(C)(=O)=O)cccc21 (stereo not shown) [Compound 42, 2-(4-chlorophenyl)-N-(2-methoxyethyl)-2-{4-[(methylsulfonyl)amino]-1H-indol-1-yl}butanamide]
20 | 0.5 to 5 | CC[C@](C(=O)NCc1ccccc1)(c1ccc(Cl)cc1)n1ccc2c(NS(C)(=O)=O)cccc21 [Compound 43, (R)—N-benzyl-2-(4-chlorophenyl)-2-{4-[(methylsulfonyl)amino]-1H-indol-1-yl}butanamide]
21 | 0.1 to 0.5 | CC[C@](C(=O)NC(C)C)(c1ccc(Cl)cc1)n1ccc2c(NS(C)(=O)=O)cccc21 [Compound 44, (R)-2-(4-chlorophenyl)-N-(1-methylethyl)-2-{4-[(methylsulfonyl)amino]-1H-indol-1-yl}butanamide]
22 | 0.1 to 0.5 | CCNC(=O)C(CC)(c1ccc(Cl)cc1)n1ccc2c(NS(C)(=O)=O)cccc21 (stereo not shown) [Compound 46, 2-(4-chlorophenyl)-N-ethyl-2-{4-[(methylsulfonyl)amino]-1H-indol-1-yl}butanamide]
23 | 0.5 to 5 | CCC(C(=O)NCCC#N)(c1ccc(Cl)cc1)n1ccc2c(NS(C)(=O)=O)cccc21 (stereo not shown) [Compound 48, 2-(4-chlorophenyl)-N-(2-cyanoethyl)-2-{4-[(methylsulfonyl)amino]-1H-indol-1-yl}butanamide]
24 | 0.1 to 0.5 | CCC(C(=O)NCCF)(c1ccc(Cl)cc1)n1ccc2c(NS(C)(=O)=O)cccc21 (stereo not shown) [Compound 49, 2-(4-chlorophenyl)-N-(2-fluoroethyl)-2-{4-[(methylsulfonyl)amino]-1H-indol-1-yl}butanamide]
25 | < 0.1 | CCC(C(=O)NCC#N)(c1ccc(Cl)cc1)n1ccc2c(NS(C)(=O)=O)cccc21 (stereo not shown) [Compound 51, 2-(4-chlorophenyl)-N-(cyanomethyl)-2-{4-[(methylsulfonyl)amino]-1H-indol-1-yl}butanamide]
26 | 0.1 to 0.5 | CCC(C(=O)NCC(=O)OC)(c1ccc(Cl)cc1)n1ccc2c(NS(C)(=O)=O)cccc21 (stereo not shown) [Compound 52, methyl N-[2-(4-chlorophenyl)-2-{4-[(methylsulfonyl)amino]-1H-indol-1-yl}butanoyl]glycinate]
27 | 0.1 to 0.5 | CNC(=O)C(CC#N)(c1ccc(Cl)cc1)n1ccc2c(NS(C)(=O)=O)cccc21 (stereo not shown) [Compound 53, 2-(4-chlorophenyl)-3-cyano-N-methyl-2-{4-[(methylsulfonyl)amino]-1H-indol-1-yl}propanamide]
28 | 0.1 to 0.5 | CNC(=O)C(CC1CC1)(c1ccc(Cl)cc1)n1ccc2c(NS(C)(=O)=O)cccc21 (stereo not shown) [Compound 56, 2-(4-chlorophenyl)-3-cyclopropyl-N-methyl-2-{4-[(methylsulfonyl)amino]-1H-indol-1-yl}propanamide]
